From PubChem BioAssay AID1963829 (Molecular Pharmacology Branch, DTP, NCI, 2024)
Values joined by “and” are separate entries in the source; they are usually repeats but may differ in a detail not shown here. Equal values may be shown once.

System: 935938-334-R-J1-PDC complex spheroid viability
Assay: Anticancer human tumor 935938-334-R-J1-PDC patient-derived small intestine adenocarcinoma cell line growth inhibition [POLQ]
Settings: for viability, T/C: stronger effect = lower value
Description: Multicellular complex tumor spheroid response to Polymerase (POL) inhibitors (novobiocin, ART-558, RP6685) in combination with a variety of drugs and investigational agents in selected tumor cell lines
The POL inhibitors (novobiocin, ART-558, and RP6685) were evaluated both individually and in combination with standard of care and investigational anticancer small molecules within a complex spheroid model of solid tumors. . Complex spheroids include a stromal component modeled by human endothelial cells (HUVEC) and fibroblasts modeled by human mesenchymal stem cells (MSCs). The concentration ranges selected for each drug and investigational agent were based upon clinically achievable concentrations if the clinical Cmax of the agent was known.
Compounds. The drugs and investigational agents: novobiocin (NSC847541), ART-558 (NSC835418), RP-6685 (NSC848927), peposertib (NSC802822), ceralasertib (NSC780249), elimusertib (NSC800525), camonsertib (NSC841442), AZD-1390 (NSC803789), olaparib (NSC753686), talazoparib (NSC767125), rucaparib (NSC756644), sotorasib (NSC818433), MRTX-1133 (NSC836407), SN-38 (NSC673596), topotecan (NSC609699), epotoside (NSC141540), doxorubicin (NSC123127), gemcitabine (NSC613327), 5-fluorouracil (NSC19893), paclitaxel (NSC125973), vemurafenib (NSC761431), MSA-2 (NSC828583), SN-011 (NSC837082), adavosertib (NSC754352), prexasertib (NSC758257), carboplatin (NSC241240) and oxaliplatin (NSC266046), were obtained from the National Cancer Institute (NCI) Developmental Therapeutics Program Chemical Repository (21). The FDA-approved anticancer drug set is available from the Developmental Therapeutics Program at https://dtp.cancer.gov/organization/dscb/obtaining/. […] The stock solutions were prepared in dimethyl sulfoxide (DMSO, Sigma-Aldrich, St. Louis, MO, cat. D2650), except for the platinum compounds which were prepared in saline (Quality Biological, Gaithersburg, MD, cat. 114-055-101), at 800-fold the tested concentration and stored at -70 degrees C prior to their use. All drugs and investigational agents were tested over a range starting from a high concentration at or near the clinical Cmax and decreasing in half-log increments. If the clinical Cmax for an agent had not been determined, the highest concentration tested was 10 microM, except for SN-38, which was tested at a high concentration of 1 microM.
Cell Culture. All cells were maintained in an incubator at 37 degrees C and 5% CO2 with 95% humidity. The PDC lines were cultured according to standard operating procedures established by the NCI PDMR (https://pdmr.cancer.gov). Table 3 of the manuscript, lists the cell lines along with the number of the three cell types plated to form the mct-spheroids and media for tumor cell growth. After thawing, all PDC lines, except 997537-175-T-J1-PDC and 415267-285-R-J2-PDC, were cultured in Matrigel-coated flasks prepared with a working solution of 1X Ham's F-12 nutrient mix, without supplementation (Thermo Fisher Scientific, cat. 11765054), 100 U/mL penicillin-streptomycin (Thermo Fisher Scientific, cat. 15140122), and 2.5% Matrigel (Corning Inc., Corning, NY, cat. 354248) for the first three passages. The two PDC lines 997537-175-T-J1-PDC and 415267-285-R-J2-PDC were cultured on uncoated flasks. The 857933-349-R-J2-PDC line was cultured in 6C/Colon 1B media containing advanced DMEM/F-12 (Thermo Fisher Scientific, cat. 12634028), 10 mM HEPES (Thermo Fisher Scientific, cat. 15630080), 1X GlutaMAX supplement (Thermo Fisher Scientific, cat. 35050061), 0.1 mg/mL primocin (InvivoGen, San Diego, CA, cat. ant-pm-2), 10% defined fetal bovine serum, heat inactivated (HyClone Laboratories Inc., Logan, UT, cat. SH30070.03HI), 50% L-WRN conditioned media (ATCC, cat. CRL-3276), 1.25 mM N-Acetyl-L-cysteine (Sigma-Aldrich, cat. A9165), 10 mM nicotinamide (Sigma-Aldrich, cat. N0636), 1X B-27 supplement (Thermo Fisher Scientific, cat. 17504044), 1X N-2 supplement (Thermo Fisher Scientific, cat. […]
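Further: spheroids exposed to drugs for seven days before viability read.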
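Wherever viability, T/C is given: 100% = DMSO vehicle control wells.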

COc1cccc(OCCCN)c1-c1cc(Nc2cnc(C#N)cn2)n[nH]1 + Nc1ccc(C#CCN(C(=O)Cc2ncc(C(F)(F)F)cc2C(F)(F)F)c2ccc(F)cc2)nn1
IC50 (curve of first compound, second compound 0.0316 µM): 36.6 nM
IC50 (curve of first compound, second compound 0.1 µM): 61.6 nM
IC50 (curve of first compound, second compound 0.316 µM): 31.7 nM
IC50 (curve of first compound, second compound 1 µM): 38.8 nM
IC50 (curve of first compound, second compound 3.16 µM): 54.9 nM
IC50 (curve of first compound, second compound 10 µM): 45.5 nM
viability, T/C (second compound 0.0316 µM, first compound 0.00316 µM): 95.1%
viability, T/C (second compound 0.0316 µM, first compound 0.01 µM): 122%
viability, T/C (second compound 0.0316 µM, first compound 0.0316 µM): 54.7%
viability, T/C (second compound 0.0316 µM, first compound 0.1 µM): 34.4%
viability, T/C (second compound 0.0316 µM, first compound 0.316 µM): 10.4%
viability, T/C (second compound 0.0316 µM, first compound 1 µM): 7.92%
viability, T/C (second compound 0.1 µM, first compound 0.00316 µM): 111%
viability, T/C (second compound 0.1 µM, first compound 0.01 µM): 99.2%
viability, T/C (second compound 0.1 µM, first compound 0.0316 µM): 72.4%
viability, T/C (second compound 0.1 µM, first compound 0.1 µM): 35.2%
viability, T/C (second compound 0.1 µM, first compound 0.316 µM): 9.41%
viability, T/C (second compound 0.1 µM, first compound 1 µM): 8.83%
viability, T/C (second compound 0.316 µM, first compound 0.00316 µM): 102%
viability, T/C (second compound 0.316 µM, first compound 0.01 µM): 92.4%
viability, T/C (second compound 0.316 µM, first compound 0.0316 µM): 44.1%
viability, T/C (second compound 0.316 µM, first compound 0.1 µM): 28.3%
viability, T/C (second compound 0.316 µM, first compound 0.316 µM): 8.42%
viability, T/C (second compound 0.316 µM, first compound 1 µM): 8.2%
viability, T/C (second compound 1 µM, first compound 0.00316 µM): 117%
viability, T/C (second compound 1 µM, first compound 0.01 µM): 83.2%
viability, T/C (second compound 1 µM, first compound 0.0316 µM): 62.1%
viability, T/C (second compound 1 µM, first compound 0.1 µM): 23.2%
viability, T/C (second compound 1 µM, first compound 0.316 µM): 10.4%
viability, T/C (second compound 1 µM, first compound 1 µM): 7.61%
viability, T/C (second compound 3.16 µM, first compound 0.00316 µM): 93.1%
viability, T/C (second compound 3.16 µM, first compound 0.01 µM): 71%
viability, T/C (second compound 3.16 µM, first compound 0.0316 µM): 76.5%
viability, T/C (second compound 3.16 µM, first compound 0.1 µM): 21.5%
viability, T/C (second compound 3.16 µM, first compound 0.316 µM): 10.1%
viability, T/C (second compound 3.16 µM, first compound 1 µM): 8.73%
viability, T/C (second compound 10 µM, first compound 0.00316 µM): 80.4%
viability, T/C (second compound 10 µM, first compound 0.01 µM): 88.1%
viability, T/C (second compound 10 µM, first compound 0.0316 µM): 66.1%
viability, T/C (second compound 10 µM, first compound 0.1 µM): 15.1%
viability, T/C (second compound 10 µM, first compound 0.316 µM): 11.3%
viability, T/C (second compound 10 µM, first compound 1 µM): 12.5%

O=c1[nH]cc(F)c(=O)[nH]1
viability, T/C (compound 0.0316 µM): 103% and 81.1% and 79.2%
viability, T/C (compound 0.1 µM): 114% and 90.2% and 81.6%
viability, T/C (compound 0.316 µM): 113% and 80.6% and 77.4%
viability, T/C (compound 1 µM): 90.5% and 72.5% and 74.6%
viability, T/C (compound 3.16 µM): 75.5% and 63.4% and 54.9%
viability, T/C (compound 10 µM): 59% and 54.3% and 47.8%
IC50 (curve of compound): > 10000 nM and 7010 nM

Nc1ccn(C2OC(CO)C(O)C2(F)F)c(=O)n1 (stereo not drawn)
viability, T/C (compound 0.0316 µM): 39.8% and 30.9% and 30.5%
viability, T/C (compound 0.1 µM): 26.2% and 19.4% and 23.6%
viability, T/C (compound 0.316 µM): 23.7% and 17.5% and 14.9%
viability, T/C (compound 1 µM): 22.1% and 18.1% and 16%
viability, T/C (compound 3.16 µM): 20.7% (2×) and 16.5%
viability, T/C (compound 10 µM): 18.4% and 16% and 17.2%
IC50 (curve of compound): < 31.6 nM

COc1ccc([C@@H](O)c2cc(-c3ncnc4cc(N5CCOCC5)ccc34)c(F)cc2Cl)nn1
viability, T/C (compound 0.0316 µM): 92.9% and 78.8% and 78%
viability, T/C (compound 0.1 µM): 81.3% and 85.4% and 74.1%
viability, T/C (compound 0.316 µM): 104% and 91.9% and 83.3%
viability, T/C (compound 1 µM): 67.2% and 91.9% and 95.6%
viability, T/C (compound 3.16 µM): 78% and 69.2% and 62.2%
viability, T/C (compound 10 µM): 36.1% and 31.2% and 33.4%
IC50 (curve of compound): 6470 nM and 5660 nM and 5150 nM
